The source made the active and inactive calls.
Key:
HEK293 = assay: inhibitors of LMP1-driven NF-kB reporter, dose response, cell-based, HEK293, luciferase, cherry-pick (AID 588343); type: functional; conditions: Homo sapiens
[1] = inhibitors of SNCA 5'UTR-driven reporter translation, confirmation, H4 neuroglioma cells, luminescence (AID 1988); type: functional, cell-based
[2] = biological target: T1, Latent membrane protein 1 (Human herpesvirus 4 (strain B95-8), UniProt P03230); assay: TES1-eGFP NF-kB reporter inhibition versus Tet-On dsRED, dose response, selectivity assay for LMP1 NF-kB inhibitor project, imaging, HEK293T, dual-color eGFP/dsRED, cherry-picks (AID 588398); type: functional, cell-based
T1 sequence (P03230 whole entry): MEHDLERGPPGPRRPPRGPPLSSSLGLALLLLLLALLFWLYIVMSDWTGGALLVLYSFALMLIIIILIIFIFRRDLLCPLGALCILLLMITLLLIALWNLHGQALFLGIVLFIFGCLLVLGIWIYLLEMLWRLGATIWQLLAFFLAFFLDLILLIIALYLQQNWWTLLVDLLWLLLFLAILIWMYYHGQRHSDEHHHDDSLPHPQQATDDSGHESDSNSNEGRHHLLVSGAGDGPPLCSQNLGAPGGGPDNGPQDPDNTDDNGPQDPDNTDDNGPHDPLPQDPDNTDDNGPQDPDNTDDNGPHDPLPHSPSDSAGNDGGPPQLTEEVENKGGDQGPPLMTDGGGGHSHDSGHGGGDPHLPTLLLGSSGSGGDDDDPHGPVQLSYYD

[3] = Luminescence Cell-Based Dose Response HTS to Identify Inhibitors of 5'UTR Stem-Loop Driven Prion Protein mRNA Translation in H4 Neuroglioblastoma Cells. [Related pubchem assays: 1827 (Project Summary), 1813 (Primary HTS)]; type: functional
[4] = biological target: T2, Apoptotic protease-activating factor 1 (Homo sapiens, UniProt O14727); type: functional
T2 sequence (O14727 whole entry): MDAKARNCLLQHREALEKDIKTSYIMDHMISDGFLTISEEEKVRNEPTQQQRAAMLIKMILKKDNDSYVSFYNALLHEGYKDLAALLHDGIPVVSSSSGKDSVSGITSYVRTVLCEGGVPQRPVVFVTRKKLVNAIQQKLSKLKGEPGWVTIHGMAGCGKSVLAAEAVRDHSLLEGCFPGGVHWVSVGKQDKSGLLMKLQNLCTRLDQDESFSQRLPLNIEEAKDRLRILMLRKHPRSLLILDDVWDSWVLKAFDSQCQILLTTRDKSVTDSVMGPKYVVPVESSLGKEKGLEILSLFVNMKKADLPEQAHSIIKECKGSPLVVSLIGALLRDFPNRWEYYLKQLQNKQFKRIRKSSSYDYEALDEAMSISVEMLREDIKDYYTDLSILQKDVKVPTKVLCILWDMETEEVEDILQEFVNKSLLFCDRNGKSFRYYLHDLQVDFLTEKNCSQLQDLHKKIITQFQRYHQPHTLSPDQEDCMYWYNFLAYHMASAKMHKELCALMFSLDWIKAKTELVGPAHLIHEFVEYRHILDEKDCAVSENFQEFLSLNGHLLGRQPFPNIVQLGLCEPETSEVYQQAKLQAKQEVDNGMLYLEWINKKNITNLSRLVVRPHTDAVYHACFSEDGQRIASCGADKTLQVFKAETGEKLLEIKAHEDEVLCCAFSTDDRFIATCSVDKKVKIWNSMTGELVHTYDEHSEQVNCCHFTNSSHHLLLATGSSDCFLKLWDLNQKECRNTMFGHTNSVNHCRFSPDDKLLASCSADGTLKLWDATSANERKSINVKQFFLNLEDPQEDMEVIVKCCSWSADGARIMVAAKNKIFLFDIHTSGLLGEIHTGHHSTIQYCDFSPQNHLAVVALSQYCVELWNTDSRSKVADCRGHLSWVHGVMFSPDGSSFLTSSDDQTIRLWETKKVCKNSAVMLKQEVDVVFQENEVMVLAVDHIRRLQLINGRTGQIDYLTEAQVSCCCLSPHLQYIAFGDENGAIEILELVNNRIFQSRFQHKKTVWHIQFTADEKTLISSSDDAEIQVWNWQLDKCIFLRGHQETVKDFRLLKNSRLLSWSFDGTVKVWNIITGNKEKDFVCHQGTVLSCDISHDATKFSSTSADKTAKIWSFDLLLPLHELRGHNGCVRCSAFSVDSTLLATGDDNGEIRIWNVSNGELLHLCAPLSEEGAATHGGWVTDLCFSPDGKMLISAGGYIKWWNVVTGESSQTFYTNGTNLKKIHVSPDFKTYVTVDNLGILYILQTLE

[5] = HEp-2 cell cytotoxicity, dose response, cytotoxicity control for RSV inhibitor project, HTS (AID 2410); type: functional; conditions: human respiratory syncytial virus
Beta-galactosidase = Beta-galactosidase (Escherichia coli, UniProt Q8VNN2); assay: PubChem AID 485352; type: functional
Beta-galactosidase, sequence (Q8VNN2 whole entry): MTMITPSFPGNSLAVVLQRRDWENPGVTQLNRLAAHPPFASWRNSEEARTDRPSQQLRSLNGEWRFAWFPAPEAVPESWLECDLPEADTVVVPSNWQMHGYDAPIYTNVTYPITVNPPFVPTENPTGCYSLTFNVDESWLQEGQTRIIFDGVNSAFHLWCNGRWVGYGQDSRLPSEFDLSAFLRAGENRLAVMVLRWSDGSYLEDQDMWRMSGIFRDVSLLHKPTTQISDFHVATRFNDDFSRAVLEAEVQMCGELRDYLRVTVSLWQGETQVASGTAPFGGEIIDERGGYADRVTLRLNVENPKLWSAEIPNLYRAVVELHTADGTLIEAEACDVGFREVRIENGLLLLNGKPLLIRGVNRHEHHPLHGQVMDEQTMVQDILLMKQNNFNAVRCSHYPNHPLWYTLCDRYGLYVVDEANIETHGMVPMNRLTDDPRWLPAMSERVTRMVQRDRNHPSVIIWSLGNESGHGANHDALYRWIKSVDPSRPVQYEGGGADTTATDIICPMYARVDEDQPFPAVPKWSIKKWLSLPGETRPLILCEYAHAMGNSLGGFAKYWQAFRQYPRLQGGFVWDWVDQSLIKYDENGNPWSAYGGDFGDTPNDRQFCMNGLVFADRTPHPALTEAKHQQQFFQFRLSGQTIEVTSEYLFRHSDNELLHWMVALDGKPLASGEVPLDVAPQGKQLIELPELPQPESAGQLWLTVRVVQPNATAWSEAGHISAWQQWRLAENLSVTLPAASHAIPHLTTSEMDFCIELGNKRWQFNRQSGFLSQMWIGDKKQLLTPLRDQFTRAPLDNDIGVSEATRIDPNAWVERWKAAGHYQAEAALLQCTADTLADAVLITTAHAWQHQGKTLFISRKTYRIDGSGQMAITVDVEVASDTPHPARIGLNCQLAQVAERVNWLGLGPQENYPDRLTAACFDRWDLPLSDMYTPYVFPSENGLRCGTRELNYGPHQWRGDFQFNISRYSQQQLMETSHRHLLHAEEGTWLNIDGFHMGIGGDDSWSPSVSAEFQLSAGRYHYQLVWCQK

[6] = biological target: T3, Type-1 angiotensin II receptor (Homo sapiens, UniProt P30556); assay: AT1 receptor antagonists, dose response, selectivity assay for APJ receptor antagonist project, cell-based, uHTS hits (AID 463214); type: functional;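 further: antagonist potency against angiotensin II stimulated AT1 response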
T3 sequence (P30556 whole entry): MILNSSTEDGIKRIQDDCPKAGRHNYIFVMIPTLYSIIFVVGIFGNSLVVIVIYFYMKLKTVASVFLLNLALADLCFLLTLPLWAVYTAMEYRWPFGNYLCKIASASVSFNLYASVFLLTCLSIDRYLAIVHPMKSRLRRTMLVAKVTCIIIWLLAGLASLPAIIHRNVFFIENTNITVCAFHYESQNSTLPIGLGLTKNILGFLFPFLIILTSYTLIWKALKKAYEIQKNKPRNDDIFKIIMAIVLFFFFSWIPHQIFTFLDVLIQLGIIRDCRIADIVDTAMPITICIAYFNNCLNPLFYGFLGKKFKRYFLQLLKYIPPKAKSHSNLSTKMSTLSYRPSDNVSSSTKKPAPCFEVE

Fatty acid synthase [7] = biological target: T4, Fatty acid synthase (Homo sapiens, UniProt P49327); assay: FAS thioesterase domain inhibitors, dose response, biochemical, endpoint fluorescence intensity, uHTS hits (AID 624327); type: functional;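 further: fluorescence from hydrolysis of an O-methyl fluorescein acyl ester substrate by the enzyme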
T4 sequence (P49327 whole entry, the tested form may be a part): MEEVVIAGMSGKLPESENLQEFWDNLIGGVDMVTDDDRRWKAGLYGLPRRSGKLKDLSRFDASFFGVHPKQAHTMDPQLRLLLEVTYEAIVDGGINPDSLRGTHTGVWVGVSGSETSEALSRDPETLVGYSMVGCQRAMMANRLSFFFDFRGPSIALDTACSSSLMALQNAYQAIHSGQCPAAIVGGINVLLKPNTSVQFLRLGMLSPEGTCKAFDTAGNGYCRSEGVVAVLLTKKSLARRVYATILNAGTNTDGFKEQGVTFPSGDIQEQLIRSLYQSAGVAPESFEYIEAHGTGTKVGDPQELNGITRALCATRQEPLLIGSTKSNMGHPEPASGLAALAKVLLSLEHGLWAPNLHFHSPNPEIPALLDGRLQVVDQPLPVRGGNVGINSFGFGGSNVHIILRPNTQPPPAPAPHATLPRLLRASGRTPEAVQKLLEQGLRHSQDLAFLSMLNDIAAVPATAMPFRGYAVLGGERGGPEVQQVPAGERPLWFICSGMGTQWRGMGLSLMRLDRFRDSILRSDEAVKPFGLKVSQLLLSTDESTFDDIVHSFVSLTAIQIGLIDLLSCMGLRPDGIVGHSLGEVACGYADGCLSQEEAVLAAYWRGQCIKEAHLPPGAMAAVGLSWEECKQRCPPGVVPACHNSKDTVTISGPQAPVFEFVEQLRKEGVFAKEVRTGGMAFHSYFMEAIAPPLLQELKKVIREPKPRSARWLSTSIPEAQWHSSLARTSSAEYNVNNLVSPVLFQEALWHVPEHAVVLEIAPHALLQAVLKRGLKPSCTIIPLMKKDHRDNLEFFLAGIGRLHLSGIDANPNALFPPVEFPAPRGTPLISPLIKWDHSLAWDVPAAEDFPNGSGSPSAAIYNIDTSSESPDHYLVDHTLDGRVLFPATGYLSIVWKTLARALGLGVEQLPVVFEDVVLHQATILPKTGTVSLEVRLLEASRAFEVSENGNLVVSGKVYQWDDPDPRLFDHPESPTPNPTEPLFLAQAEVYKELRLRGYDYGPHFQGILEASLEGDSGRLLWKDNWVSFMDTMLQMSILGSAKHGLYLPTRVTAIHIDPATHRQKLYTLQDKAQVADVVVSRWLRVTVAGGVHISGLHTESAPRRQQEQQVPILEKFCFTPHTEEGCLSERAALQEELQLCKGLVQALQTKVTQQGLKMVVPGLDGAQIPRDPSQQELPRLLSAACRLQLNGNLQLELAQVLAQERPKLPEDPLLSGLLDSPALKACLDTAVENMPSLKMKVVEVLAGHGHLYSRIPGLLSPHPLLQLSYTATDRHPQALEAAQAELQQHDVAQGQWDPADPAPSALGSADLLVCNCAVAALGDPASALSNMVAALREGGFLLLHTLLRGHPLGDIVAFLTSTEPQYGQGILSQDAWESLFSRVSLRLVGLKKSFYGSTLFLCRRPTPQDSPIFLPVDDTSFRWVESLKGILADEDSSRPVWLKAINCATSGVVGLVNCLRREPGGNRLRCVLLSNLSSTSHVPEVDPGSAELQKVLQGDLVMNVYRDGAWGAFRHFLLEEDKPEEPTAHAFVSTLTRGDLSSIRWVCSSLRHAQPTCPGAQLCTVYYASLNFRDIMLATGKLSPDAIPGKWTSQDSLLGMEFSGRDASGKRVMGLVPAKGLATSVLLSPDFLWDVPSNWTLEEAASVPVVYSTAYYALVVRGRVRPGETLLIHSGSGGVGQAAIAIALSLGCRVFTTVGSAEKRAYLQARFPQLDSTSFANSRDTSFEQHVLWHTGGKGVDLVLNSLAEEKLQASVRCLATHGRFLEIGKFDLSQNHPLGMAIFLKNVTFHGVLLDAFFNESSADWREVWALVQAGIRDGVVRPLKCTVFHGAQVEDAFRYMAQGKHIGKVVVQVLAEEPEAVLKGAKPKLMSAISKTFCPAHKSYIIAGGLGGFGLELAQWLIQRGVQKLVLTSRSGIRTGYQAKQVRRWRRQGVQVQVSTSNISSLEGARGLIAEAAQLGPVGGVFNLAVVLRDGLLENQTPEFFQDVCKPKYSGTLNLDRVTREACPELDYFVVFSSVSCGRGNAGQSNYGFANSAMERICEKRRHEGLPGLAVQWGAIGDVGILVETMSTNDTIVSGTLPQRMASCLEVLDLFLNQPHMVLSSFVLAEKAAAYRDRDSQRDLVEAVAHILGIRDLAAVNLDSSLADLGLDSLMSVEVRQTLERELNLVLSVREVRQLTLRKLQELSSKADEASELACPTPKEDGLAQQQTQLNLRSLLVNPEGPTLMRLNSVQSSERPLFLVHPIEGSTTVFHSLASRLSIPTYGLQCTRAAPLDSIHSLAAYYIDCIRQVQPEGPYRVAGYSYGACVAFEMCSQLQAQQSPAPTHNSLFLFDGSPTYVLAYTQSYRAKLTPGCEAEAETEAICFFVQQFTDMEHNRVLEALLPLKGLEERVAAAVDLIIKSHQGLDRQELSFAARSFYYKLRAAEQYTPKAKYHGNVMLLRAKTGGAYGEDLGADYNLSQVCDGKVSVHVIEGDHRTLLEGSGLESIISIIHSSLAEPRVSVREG

Fatty acid synthase [8] = biological target: T4, Fatty acid synthase; assay: FAS thioesterase domain inhibitors, dose response, biochemical, kinetic fluorescence intensity (AID 624326); type: functional;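 further: rate of fluorescence rise from hydrolysis of a fluorogenic O-methyl fluorescein ester substrate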
[9] = biological target: T5, Sentrin-specific protease 7 (Homo sapiens, UniProt Q9BQF6); assay: SENP7 protease inhibitors, SAR follow-up, biochemical, luminescence, set 2 (AID 588600); type: functional
T5 sequence (Q9BQF6 whole entry): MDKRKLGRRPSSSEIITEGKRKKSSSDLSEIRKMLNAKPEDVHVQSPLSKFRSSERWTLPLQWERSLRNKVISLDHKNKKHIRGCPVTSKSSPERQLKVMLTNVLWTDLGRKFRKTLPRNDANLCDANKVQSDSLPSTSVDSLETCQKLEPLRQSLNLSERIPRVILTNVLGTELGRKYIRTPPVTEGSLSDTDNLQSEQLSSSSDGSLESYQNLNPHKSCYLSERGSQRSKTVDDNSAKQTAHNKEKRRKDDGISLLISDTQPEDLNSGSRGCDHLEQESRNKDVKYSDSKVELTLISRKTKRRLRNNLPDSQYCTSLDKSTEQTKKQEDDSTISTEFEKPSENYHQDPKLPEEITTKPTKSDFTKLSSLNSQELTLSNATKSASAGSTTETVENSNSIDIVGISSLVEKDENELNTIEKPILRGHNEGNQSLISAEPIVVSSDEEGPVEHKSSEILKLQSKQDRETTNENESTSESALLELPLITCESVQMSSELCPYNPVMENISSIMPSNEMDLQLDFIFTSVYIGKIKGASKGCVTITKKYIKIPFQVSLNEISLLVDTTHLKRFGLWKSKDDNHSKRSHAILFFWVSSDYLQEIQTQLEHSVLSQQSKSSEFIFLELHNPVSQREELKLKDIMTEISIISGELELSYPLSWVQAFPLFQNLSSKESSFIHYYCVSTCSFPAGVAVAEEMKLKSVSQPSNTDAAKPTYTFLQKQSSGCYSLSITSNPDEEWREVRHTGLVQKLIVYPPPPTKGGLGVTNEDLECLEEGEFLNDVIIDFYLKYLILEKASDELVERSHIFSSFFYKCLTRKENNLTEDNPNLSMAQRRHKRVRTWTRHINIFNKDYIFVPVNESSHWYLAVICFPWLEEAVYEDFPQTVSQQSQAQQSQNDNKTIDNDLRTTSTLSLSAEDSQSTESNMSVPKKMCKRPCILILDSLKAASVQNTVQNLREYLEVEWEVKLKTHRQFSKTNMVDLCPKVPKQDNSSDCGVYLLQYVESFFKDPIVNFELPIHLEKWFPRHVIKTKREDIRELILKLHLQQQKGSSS

[10] = biological target: T6, Sentrin-specific protease 8 (Homo sapiens, UniProt Q96LD8); assay: SENP8 protease inhibitors, SAR follow-up, biochemical, luminescence, set 2 (AID 588601); type: functional
T6 sequence (Q96LD8 whole entry): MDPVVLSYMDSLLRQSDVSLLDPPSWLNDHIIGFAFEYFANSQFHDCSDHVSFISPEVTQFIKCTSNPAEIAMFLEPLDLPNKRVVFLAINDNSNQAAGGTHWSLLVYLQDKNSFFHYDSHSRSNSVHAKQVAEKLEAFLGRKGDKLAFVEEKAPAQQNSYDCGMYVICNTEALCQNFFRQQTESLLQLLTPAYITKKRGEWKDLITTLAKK

[11] = biological target: T6, Sentrin-specific protease 8; assay: SENP8 protease inhibitors, SAR follow-up, biochemical, luminescence (AID 504501); type: functional
[12] = biological target: T5, Sentrin-specific protease 7; assay: SENP7 protease inhibitors, SAR follow-up, biochemical, luminescence (AID 504497); type: functional
[13] = biological target: T7, Sentrin-specific protease 6 (Homo sapiens, UniProt Q9GZR1); assay: SAR Analysis of small molecule inhibitors of Sentrin-specific protease 6 (SENP6) using a Luminescent assay. [Related pubchem assays (depositor defined):AID2582, AID2599]; type: functional
T7 sequence (Q9GZR1 whole entry): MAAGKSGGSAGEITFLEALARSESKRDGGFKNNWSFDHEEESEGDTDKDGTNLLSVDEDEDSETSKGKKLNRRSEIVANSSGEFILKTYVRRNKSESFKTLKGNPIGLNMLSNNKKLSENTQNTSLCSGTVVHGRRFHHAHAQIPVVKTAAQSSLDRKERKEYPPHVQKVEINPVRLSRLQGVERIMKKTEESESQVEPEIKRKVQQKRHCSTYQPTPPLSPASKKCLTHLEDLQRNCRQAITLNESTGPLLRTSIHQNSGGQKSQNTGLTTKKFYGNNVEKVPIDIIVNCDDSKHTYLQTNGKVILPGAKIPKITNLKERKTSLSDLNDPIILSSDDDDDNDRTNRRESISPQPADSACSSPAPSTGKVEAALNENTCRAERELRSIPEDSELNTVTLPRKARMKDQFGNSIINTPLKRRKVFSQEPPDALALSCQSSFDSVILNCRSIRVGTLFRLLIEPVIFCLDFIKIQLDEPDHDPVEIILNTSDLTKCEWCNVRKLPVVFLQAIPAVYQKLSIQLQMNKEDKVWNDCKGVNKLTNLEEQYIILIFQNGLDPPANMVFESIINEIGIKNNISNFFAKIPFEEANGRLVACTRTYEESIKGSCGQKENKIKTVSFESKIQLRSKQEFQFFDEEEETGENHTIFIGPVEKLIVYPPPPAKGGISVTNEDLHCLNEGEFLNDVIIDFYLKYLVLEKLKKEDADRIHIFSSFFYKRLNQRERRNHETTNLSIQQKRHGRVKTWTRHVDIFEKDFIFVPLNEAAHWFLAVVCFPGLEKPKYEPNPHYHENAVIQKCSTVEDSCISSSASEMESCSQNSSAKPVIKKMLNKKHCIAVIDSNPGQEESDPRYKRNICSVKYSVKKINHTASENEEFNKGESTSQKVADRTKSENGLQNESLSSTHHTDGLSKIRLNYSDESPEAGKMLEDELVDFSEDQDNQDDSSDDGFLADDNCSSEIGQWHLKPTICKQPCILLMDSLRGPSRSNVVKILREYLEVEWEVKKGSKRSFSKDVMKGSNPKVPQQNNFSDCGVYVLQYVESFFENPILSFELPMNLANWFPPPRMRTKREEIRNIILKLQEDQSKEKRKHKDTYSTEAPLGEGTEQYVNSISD

Caspase-3 [14] = biological target: T8, Caspase-3 (Homo sapiens, UniProt P42574); assay: caspase-3 inhibitors as off-family protease, SAR follow-up, selectivity assay for SENP protease inhibitor project, biochemical, luminescence, set 2 (AID 588599); type: functional
T8 sequence (P42574 whole entry): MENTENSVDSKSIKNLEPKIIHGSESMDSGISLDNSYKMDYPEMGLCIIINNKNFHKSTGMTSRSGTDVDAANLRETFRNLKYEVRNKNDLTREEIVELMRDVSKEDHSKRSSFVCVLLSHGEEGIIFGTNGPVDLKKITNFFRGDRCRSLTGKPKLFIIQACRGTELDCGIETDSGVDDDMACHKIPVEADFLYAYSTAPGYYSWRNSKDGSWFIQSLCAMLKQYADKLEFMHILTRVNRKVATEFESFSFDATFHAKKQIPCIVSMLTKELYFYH

Caspase-3 [15] = biological target: T8, Caspase-3; assay: SAR Analysis of small molecule inhibitors of Sentrin-specific proteases (SENPs) using a Caspase-3 Selectivity assay. [Related pubchem assays (depositor defined):AID2540, AID2599, AID434973, AID489001]; type: functional

Structure (SMILES): Cc1ccc(NC(=O)c2ccc3c(c2)OCCO3)nc1
- AC50 (HEK293): 2.56 µM (active)
- EC50 [1]: 8.65 µM (inconclusive)
- AC50 [2]: 186 µM (active)
- EC50 [3]: 11.3 µM (active)

Structure (SMILES): O=C(CCNS(=O)(=O)c1ccccc1)NCCSc1ccc(Br)cc1
- IC50 [4]: > 100 µM (inactive)

Structure (SMILES): COc1ccc(-n2nc3ccc(N)cc3n2)cc1Cl
- CC50 [5]: 47.1 µM (active)
- IC50 [4]: > 100 µM (inactive)

Structure (SMILES): O=C(CCc1ccccc1)OCC(=O)c1cccc([N+](=O)[O-])c1
- EC50 (Beta-galactosidase): > 40 µM (inactive)
- IC50 [6]: 19.2 µM (active)
- IC50 (Fatty acid synthase [7]): 11.3 µM (active)
- IC50 (Fatty acid synthase [8]): 9.4 µM (active)

Structure (SMILES): CC(=NNC(=S)N1CCCC1)c1ccccn1
- AC50 (HEK293): 0.0151 µM (active)
- AC50 [2]: 0.444 µM (active)

Structure (SMILES): O=C(Nc1nc2ccc(Cl)cc2s1)c1cccs1
- IC50 [9]: 1.39 µM (active)
- IC50 [10]: 1.25 µM (active)
- IC50 [11]: 1.5 µM (active)
- IC50 [12]: 1.2 µM (active)
- IC50 [13]: 1.3 µM (active)
- IC50 (Caspase-3 [14]): 2.07 µM (active)
- IC50 (Caspase-3 [15]): 2 µM (active)
